Earlier results as cited in US12590297B2, “Differentiation method” (Koninklijke Nederlandse Akademie Van Wetenschappen, priority 2016, dated 2026).

Columns and labels:
[1] = molecular target: T1, glucocorticoid receptor (Homo sapiens, UniProt P04150); conditions: in comparison to cortisol; oral dosing; cited from earlier work
T1 sequence (P04150 1-777): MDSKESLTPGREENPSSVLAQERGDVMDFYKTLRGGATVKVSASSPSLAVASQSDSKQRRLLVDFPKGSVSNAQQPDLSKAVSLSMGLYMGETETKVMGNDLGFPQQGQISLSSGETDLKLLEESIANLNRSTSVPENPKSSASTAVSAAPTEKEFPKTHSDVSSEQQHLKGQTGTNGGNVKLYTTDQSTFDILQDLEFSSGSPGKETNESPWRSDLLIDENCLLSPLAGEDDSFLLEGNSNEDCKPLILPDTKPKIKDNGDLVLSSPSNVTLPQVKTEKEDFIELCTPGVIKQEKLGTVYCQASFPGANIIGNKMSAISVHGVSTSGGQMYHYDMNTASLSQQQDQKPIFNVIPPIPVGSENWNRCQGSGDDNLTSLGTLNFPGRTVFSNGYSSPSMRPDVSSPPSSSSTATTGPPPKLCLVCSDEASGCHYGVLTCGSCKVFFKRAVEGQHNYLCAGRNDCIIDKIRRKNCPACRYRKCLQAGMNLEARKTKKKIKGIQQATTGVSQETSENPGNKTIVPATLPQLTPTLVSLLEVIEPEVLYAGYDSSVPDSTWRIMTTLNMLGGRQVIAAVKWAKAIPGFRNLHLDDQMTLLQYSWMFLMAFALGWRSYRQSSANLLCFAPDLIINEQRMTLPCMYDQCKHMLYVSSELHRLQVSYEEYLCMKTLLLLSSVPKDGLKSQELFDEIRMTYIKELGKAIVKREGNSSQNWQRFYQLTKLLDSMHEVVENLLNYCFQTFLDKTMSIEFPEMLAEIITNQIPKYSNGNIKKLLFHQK

[2] = molecular target: T2, ALK5 (TGF-βR1) (Homo sapiens, UniProt P36897); conditions: high concentrations; p38 MAP kinase inhibitor; cited from earlier work
T2 sequence (P36897 34-503): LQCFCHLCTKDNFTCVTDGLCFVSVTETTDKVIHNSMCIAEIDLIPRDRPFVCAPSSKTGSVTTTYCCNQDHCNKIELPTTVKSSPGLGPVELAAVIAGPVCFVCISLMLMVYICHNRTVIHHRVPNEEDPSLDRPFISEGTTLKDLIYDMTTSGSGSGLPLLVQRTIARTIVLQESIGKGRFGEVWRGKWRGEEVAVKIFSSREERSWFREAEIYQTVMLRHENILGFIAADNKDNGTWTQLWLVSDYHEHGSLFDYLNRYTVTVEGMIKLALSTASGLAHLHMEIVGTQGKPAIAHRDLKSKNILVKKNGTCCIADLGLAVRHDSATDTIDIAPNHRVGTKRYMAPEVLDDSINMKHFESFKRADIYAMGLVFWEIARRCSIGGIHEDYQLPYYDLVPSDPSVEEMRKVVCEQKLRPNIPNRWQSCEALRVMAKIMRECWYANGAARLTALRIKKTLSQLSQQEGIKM

| Compound | Glucocorticoid potency [1] | concentration at which thought to inhibit ALK5 [2] |
| --- | --- | --- |
| C[C@]12CCC(=O)C=C1CC[C@@H]1[C@@H]2[C@@H](O)C[C@@]2(C)[C@H]1CC[C@]2(O)C(=O)CO [Cortisol (hydrocortisone), Cortisol] | 1 |  |
| C[C@]12CCC(=O)C=C1CC[C@@H]1[C@@H]2C(=O)C[C@@]2(C)[C@H]1CC[C@]2(O)C(=O)CO [Cortisone] | 0.8 |  |
| C[C@]12C=CC(=O)C=C1CC[C@@H]1[C@@H]2[C@@H](O)C[C@@]2(C)[C@H]1CC[C@]2(O)C(=O)CO [Prednisolone] | 4 |  |
| C[S+]([O-])c1ccc(-c2nc(-c3ccc(F)cc3)c(-c3ccncc3)[nH]2)cc1 (centres unmarked) [SB-203580] |  | ≥ 10 µM |
| C[C@]12C=CC(=O)C=C1CC[C@H]1[C@@H]3C[C@@H](O)[C@](O)(C(=O)CO)[C@@]3(C)C[C@H](O)[C@@]12F [Triamcinolone] | 5 |  |
